Source: patent US20230032623A1, “Tumor-on-a-chip” (NEW YORK UNIVERSITY, priority 2021, published 2023)
“Also recorded” adds a separate entry of the source.

Key:
Assay type in all cases: cell-based, human
[1] = test system: tumor-associated macrophages (TAMs); test: CD163 (M2-like marker) expression on TAM in GBM-on-a-Chip, immunostaining and qPCR
Procedure: U937 monocytes were polarized into macrophages with treatments of 5 nM PMA (Sigma-Aldrich) for 24 hr (Shi Y et al., Nature communications. 2017 Jun. 1; 8(1):1-7). Biomimetic TAMs (CD68+CD163+) were obtained by culturing U937-derived macrophages in complete culture media supplemented with supernatants of patient-derived GBM cells (5×10^5 cells/mL) which were collected after 3 days' culture and centrifuged at 2000×g for 10 min at 4° C. to remove cell debris. Cryopreserved human PBMCs (10HU-003, iXCells Biotechnologies) were thawed and cultured in RPMI-1640 medium (Gibco) supplemented with 10% FBS (Gibco) and 1% penicillin/streptomycin (Gibco) overnight before sorting for CD8+ T-cells. Allogeneic CD8+ T-cells were isolated from PBMCs via negative selection using MojoSort Human CD8 T-Cell Isolation Kit (MojoSort, 480011, Biolegend) as per the manufacturer's protocol (FIG. 7A through FIG. 7D). […]
To characterize the expression of surface marks on GBM cell, CD8+ T-cell and TAM, cells were firstly recovered with Corning Cell Recovery Solution (Corning, N.Y., USA) from the brain tissue-mimicking hydrogel. […] To quantify PD-1 expression on CD8+ T-cell, cells were first incubated with PD-1 primary antibody (367402, Biolegend) for 1 hr, and then visualized with Alexa Fluor 488 conjugated goat anti-mouse IgG secondary antibodies (Invitrogen, 5 μg/mL). […]

PD-L1 = test: qPCR analysis of PD-L1 expression in TAM and GBM cell
Procedure: Control groups were treated with fresh cell culture media supplemented with DMSO (0.01%) and human IgG4 isotype control antibody (1 μg/mL, BioLegend). Fresh cell culture media supplemented anti-PD-1 and anti-CSF-1R antibodies was loaded in the microfluidic channels 2 hr after loading allogeneic CD8+ T-cells. Blocking media was freshly prepared and replenished every 24 hr for 3 days.
RNA was extracted using RNeasy Plus Mini Kit (Qiagen, US), and cDNA was synthesized from the mRNA using SuperScript IV VILO Master Mix for RT-RCR (Invitrogen, US), followed by real-time PCR using a SYBR Green PCR Master Mix (Thermo Fisher Scientific, US) and QuantStudio six sequence detection system (Applied Biosystems, Thermo Fisher Scientific). The reactions were performed with the following cycling conditions: 95° C. for 10 min followed by 40 cycles of 95° C. for 15 s and 60° C. for 1 min. GAPDH was used as a housekeeping gene for normalization. All experiments were repeated three times. The relative change in gene expression was analyzed with the 2^−ΔΔCT method. […]

allogeneic CD8+ T-cells [2] = test: Allogeneic CD8+ T-cell extravasation/infiltration across brain microvessels in GBM-on-a-Chip; conditions: BLZ945 0.1 μg/ml, nivolumab 1 μg/ml, mono or dual, every 24 hr for 3 days, PN, CL, MES GBM
Procedure: (§1) Patient-derived GBM cells were firstly dissociated with Accutase (Innovative Cell Technologies), and then labeled with CellTracker Red (5 μM, C34552, Thermo Fisher-Scientific) as per the manufacturer's instructions. TAMs and GBM cells were then mixed with a number ratio of 1:2 at a cell density of 1×10^8 cells/mL in the brain tissue-mimicking hydrogel. The final cell numbers of GBM and TAMs were about 1×10^5 cells per chip. […] Hydrogel solution was then quickly flushed into the hydrogel loading channel, and then incubated in an incubator at 37° C. and 5% CO2 for 30 min for complete gelation. After incubation, the media infusion channel and the vascular-seeding channel was flushed with fresh cell culture media for 2 hr. HBMVECs labeled with DiD (5 μM, V22887, Thermo Fisher-Scientific) were seeded into the vascular-seeding channel at a density of 5×10^6 cells/mL, and incubated at 37° C. and 5% CO2 overnight with fresh cell culture media. To form the vascular lumens, the microfluidic chip was flipped every 15 mins for 2 hr to let HBMVECs to uniformly attach to the vascular-seeding channel. After 24 hr′ incubation, IL-2 activated allogeneic CD8+ T-cells were firstly labeled with CellTracker Green (5 μM, C2925, Thermo Fisher-Scientific) and loaded into the vascular channel at a total cell number of 1×10^6 cells per chip. After culture in the incubator for 1-3 days, live cell images of different cell compartments were captured by an inverted fluorescent microscope (Zeiss Axio Observer.Z1).
Infiltrated CD8+ T-cells were defined as the CD8+ T-cells migrating out of vascular lumens. To quantify the migration behaviors of those CellTracker Green-labeled allogeneic CD8+ T-cells, time-lapsed image stacks were acquired every minute for 2 hr and at least three positions in each microfluidic chip. The cell centroids at different time points of the same cell were then used to calculate the cell migration speed and linked up to represent the migration trajectories by using ImageJ (NIH). The mean migration speeds were then averaged for all infiltrated cells. […]

allogeneic CD8+ T-cells [3] = test: CD8+ T-cell activation analysis (CD154 expression) in GBM-on-a-Chip; conditions: BLZ945 0.1 μg/ml, nivolumab 1 μg/ml, mono or dual, 3 days
Procedure: To characterize the expression of surface marks on GBM cell, CD8+ T-cell and TAM, cells were firstly recovered with Corning Cell Recovery Solution (Corning, N.Y., USA) from the brain tissue-mimicking hydrogel. Briefly, cell culture medium was aspirated, and the microfluidics chip was rinsed with cold 1× PBS twice, 10 min per round. PDMS slabs were detached from the cover glass in the microfluidics chip, followed by incubation with Corning Cell Recovery Solution on ice for 30 min. With gently pipetting the channel containing cells, the cell suspension was centrifuged, washed with cold 1 x PBS twice and then resuspended in 5% BSA blocking buffer. All cell samples were fixed in 4% paraformaldehyde (PFA) (Sigma-Aldrich) for 10 min at room temperature. […] To quantify PD-1 expression on CD8+ T-cell, cells were first incubated with PD-1 primary antibody (367402, Biolegend) for 1 hr, and then visualized with Alexa Fluor 488 conjugated goat anti-mouse IgG secondary antibodies (Invitrogen, 5 μg/mL). […] PD-1 and CD154 expressions on CD8+ T-cell, PD-L1 and CD163 expressions on macrophage were quantified based on the mean florescent intensity of cell staining using ImageJ (NIH). Alternatively, ratios of CD154+ or CD163+-cells were calculated relative to CD8+ cells or CD68+ cells, respectively. […]

[4] = test system: patient-derived GBM cells; test: Quantification of GBM cell apoptosis (caspase-3/7 activation) in GBM-on-a-Chip; conditions: BLZ945 0.1 μg/ml, nivolumab 1 μg/ml, mono or dual; for GBM cell apoptosis with presence of microglia versus macrophage only system: HMC3 microglia present, PN, CL, MES GBM
Procedure: as §1
To examine the apoptosis of GBM cells in the microfluidic model, CellEvent Caspase-3/7 Green Detection Reagent (R37111, Thermo Fisher-Scientific) and Hoechst 33342 (5 μg/mL; H3570, Thermo Fisher-Scientific) were used to distinguish the apoptotic cells that with activated caspase-3/7 with bright green nuclei. […] The ratio of apoptotic GBM cells were calculated as the number of cells with green nuclei to the total number of GBM cells that were stained with CellTracker Red (5 μM, C34552, Thermo Fisher-Scientific). […]

Compound | M2-like marker CD163 expression on TAM / macrophage polarization toward M2 phenotype ([1]; BLZ945 0.1 μg/ml every 24 hr for 3 days, PN (GBML20), CL (GBML08), MES (GBML91) GBM subtypes) | CD163 expression in TAM by qPCR ([1]; BLZ945 0.1 μg/ml, qPCR) | PD-L1 expression in TAM and GBM cells (PD-L1; BLZ945 0.1 μg/ml alone, qPCR) | mRNA expression of PD-L1 in GBM cell (PD-L1; BLZ945 0.1 μg/ml, GBM cells co-cultured with TAM) | Allogeneic CD8+ T-cell extravasation / infiltrated CD8+ T-cells (allogeneic CD8+ T-cells [2]) | Allogeneic CD8+ T-cell extravasation / infiltrated CD8+ T-cells (allogeneic CD8+ T-cells [2]; listed as CSF-1R inhibitor) | CD8+ T-cell activation (CD154 expression, CD154+CD8+ T-cells) (allogeneic CD8+ T-cells [3]) | GBM cell apoptosis (caspase-3/7 activation) ([4]; 3 days, macrophage-only system) | GBM cell apoptosis with presence of microglia versus macrophage only system [4]
CNC(=O)c1cc(Oc2ccc3nc(N[C@@H]4CCCC[C@H]4O)sc3c2)ccn1 [BLZ945] | suppressed the polarization of macrophages toward an immunosuppressive M2 phenotype in all three GBM subtypes with more significant CD163 marker suppression in the CL and MES GBM subtypes relative to the PN GBM; also recorded: limited expression of CD163 in all GBM subtypes | inhibition of CD163 expression in TAM | no significant change in PD-L1 expression for both TAM and GBM cells | did not change the PD-L1 expression in GBM cells | can significantly enhance allogeneic CD8+ T-cell extravasation across brain microvessels | increased allogeneic CD8+ T-cell infiltration in the tumor | did not significantly reverse the immunosuppression onto the cytotoxic CD8+ T-cell | limited effect on tumor apoptosis | no significant difference with the GBM and macrophage only condition
nivolumab: human IgG4 anti-PD-1 monoclonal antibody; PD-1 blockade | – | – | – | – | did not increase the extravasation of allogeneic CD8+ T-cell | – | did enhance CD8+T-cell activation in the PN and MES GBMs | – | no significant difference with the GBM and macrophage only condition
